Data published in article PMC6923384, “Insights into the κ/ι-carrageenan metabolism pathway of some marine Pseudoalteromonas species” (Communications Biology, 2019).
Each block holds one compound with its values, some of them ahead of it.

Key:
[1] = target: T1, S1_19A (Pseudoalteromonas fuliginea, UniProt A0ABQ6RIU8); test: product analysis, details in supplement; assay type: biochemical; details: removes 4-sulfate from G4S adjacent to the non-reducing end
T1 construct: gene EU509_08825; pET28a His-tag, E. coli BL21(DE3) Star with formylglycine generating enzyme; cloning described previously
T1 sequence (A0ABQ6RIU8 entry or part of it): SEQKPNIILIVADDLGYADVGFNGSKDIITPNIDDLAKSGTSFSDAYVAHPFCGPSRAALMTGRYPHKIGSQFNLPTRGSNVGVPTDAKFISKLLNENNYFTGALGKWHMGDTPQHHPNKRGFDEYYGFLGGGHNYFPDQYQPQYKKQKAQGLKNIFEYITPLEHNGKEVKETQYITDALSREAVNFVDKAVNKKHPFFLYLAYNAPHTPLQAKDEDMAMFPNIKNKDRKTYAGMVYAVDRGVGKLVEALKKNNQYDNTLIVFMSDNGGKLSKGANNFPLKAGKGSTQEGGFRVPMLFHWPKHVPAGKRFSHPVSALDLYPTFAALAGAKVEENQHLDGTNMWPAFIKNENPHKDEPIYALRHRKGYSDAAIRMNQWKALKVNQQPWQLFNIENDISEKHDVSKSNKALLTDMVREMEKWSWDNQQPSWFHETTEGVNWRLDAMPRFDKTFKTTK

[2] = target: T2, S1_19B (Pseudoalteromonas fuliginea, UniProt A0ABQ6RIL2, C77S); test: crystal structure of the complex; assay type: binding; details: co-crystallization; inactive (non-productive) complex; C77S inferred from methods (mutants in complex with ligands)
T2 construct: gene EU509_08890; residues 28-473, signal peptide removed, pET28a N-terminal His-tag (cut by thrombin for crystals), E. coli BL21(DE3) Star with formylglycine generating enzyme; dimer
T2 sequence (A0ABQ6RIL2 entry or part of it C77S): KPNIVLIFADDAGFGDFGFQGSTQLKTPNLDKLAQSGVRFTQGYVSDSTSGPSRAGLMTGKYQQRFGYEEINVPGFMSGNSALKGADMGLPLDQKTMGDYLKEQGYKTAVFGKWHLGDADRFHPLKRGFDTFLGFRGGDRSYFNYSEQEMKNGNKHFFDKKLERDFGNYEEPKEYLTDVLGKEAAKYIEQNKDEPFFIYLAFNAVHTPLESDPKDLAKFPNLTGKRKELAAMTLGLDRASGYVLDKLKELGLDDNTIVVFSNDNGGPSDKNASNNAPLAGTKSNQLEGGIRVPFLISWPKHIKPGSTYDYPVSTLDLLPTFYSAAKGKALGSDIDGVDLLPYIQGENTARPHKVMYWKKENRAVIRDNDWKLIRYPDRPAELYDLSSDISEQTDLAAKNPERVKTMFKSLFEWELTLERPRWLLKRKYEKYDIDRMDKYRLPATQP

[3] = target: T3, S1_NC (Pseudoalteromonas fuliginea, UniProt A0ABQ6RIJ3, C84S); test: crystal structure of the complex; assay type: binding; details: crystal soaking; only the non-reducing end disaccharide (ι-NC2) modelled; active site
T3 construct: gene EU509_08820; residues 34-507, signal peptide removed, pET28a N-terminal His-tag cut by thrombin for crystals, E. coli BL21(DE3) Star
T3 sequence (A0ABQ6RIJ3 entry or part of it C84S): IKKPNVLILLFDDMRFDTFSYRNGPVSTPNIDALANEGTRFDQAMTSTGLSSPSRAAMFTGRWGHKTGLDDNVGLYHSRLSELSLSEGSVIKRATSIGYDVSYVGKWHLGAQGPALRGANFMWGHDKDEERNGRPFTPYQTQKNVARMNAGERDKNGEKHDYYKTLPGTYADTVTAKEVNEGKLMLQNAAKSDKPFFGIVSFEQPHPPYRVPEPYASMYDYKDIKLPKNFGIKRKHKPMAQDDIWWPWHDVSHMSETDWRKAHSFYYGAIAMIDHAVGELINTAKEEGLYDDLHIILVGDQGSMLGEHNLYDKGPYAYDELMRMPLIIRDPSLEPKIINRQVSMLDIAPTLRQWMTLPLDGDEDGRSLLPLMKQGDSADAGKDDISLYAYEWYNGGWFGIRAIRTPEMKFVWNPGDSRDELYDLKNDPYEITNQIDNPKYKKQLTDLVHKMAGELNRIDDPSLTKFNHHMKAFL

[4] = target: DauA, 3,6-anhydro-D-galactose dehydrogenase from Pseudoalteromonas fuliginea PS47 (Pseudoalteromonas fuliginea PS47); test: crystal structure; hanging drop vapor-diffusion at 18 °C; N-terminal His-Tag cleaved with thrombin before crystallization
[5] = target: T4, BovGH167 (Bacteroides ovatus, UniProt A0ABF7PI57); test: thin layer chromatography of products; assay type: biochemical; details: hydrolysis of β-1,4-linkage to κ-NC2 and likely β-NC2 activity as GH167
T4 construct: gene HMPREF1069_02044; residues 26-775, synthetic codon-optimised gene, pET28a His-tag, E. coli BL21(DE3) Star
T4 sequence (A0ABF7PI57 26-775): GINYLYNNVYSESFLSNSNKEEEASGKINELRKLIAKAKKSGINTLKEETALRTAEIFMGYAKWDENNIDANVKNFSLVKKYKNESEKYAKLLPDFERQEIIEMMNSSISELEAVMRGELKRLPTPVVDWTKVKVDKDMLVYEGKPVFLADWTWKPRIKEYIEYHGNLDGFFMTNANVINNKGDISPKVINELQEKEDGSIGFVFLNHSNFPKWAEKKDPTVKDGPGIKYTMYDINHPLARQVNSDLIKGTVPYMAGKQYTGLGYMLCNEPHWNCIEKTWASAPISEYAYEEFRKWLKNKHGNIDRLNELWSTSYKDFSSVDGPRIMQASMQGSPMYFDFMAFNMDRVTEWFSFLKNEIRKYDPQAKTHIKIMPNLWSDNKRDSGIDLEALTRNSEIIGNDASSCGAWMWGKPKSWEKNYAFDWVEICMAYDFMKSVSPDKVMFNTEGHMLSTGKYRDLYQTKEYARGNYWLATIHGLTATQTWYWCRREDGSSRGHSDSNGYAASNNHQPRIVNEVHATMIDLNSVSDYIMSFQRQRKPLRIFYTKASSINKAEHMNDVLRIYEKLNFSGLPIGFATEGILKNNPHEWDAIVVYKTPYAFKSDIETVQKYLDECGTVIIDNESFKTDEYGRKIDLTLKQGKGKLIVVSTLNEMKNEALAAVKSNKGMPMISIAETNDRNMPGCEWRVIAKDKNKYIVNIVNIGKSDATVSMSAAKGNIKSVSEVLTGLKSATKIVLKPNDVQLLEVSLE

[6] = target: T5, GH167 (Pseudoalteromonas fuliginea, UniProt A0ABQ6RII1); test: thin layer chromatography of products; assay type: biochemical; details: hydrolysis of β-1,4-linkage to κ-NC2 and likely β-NC2
T5 construct: gene EU509_08810; residues 21-808, signal peptide removed, pET28a His-tag, E. coli BL21(DE3) Star
T5 sequence (A0ABQ6RII1 entry or part of it): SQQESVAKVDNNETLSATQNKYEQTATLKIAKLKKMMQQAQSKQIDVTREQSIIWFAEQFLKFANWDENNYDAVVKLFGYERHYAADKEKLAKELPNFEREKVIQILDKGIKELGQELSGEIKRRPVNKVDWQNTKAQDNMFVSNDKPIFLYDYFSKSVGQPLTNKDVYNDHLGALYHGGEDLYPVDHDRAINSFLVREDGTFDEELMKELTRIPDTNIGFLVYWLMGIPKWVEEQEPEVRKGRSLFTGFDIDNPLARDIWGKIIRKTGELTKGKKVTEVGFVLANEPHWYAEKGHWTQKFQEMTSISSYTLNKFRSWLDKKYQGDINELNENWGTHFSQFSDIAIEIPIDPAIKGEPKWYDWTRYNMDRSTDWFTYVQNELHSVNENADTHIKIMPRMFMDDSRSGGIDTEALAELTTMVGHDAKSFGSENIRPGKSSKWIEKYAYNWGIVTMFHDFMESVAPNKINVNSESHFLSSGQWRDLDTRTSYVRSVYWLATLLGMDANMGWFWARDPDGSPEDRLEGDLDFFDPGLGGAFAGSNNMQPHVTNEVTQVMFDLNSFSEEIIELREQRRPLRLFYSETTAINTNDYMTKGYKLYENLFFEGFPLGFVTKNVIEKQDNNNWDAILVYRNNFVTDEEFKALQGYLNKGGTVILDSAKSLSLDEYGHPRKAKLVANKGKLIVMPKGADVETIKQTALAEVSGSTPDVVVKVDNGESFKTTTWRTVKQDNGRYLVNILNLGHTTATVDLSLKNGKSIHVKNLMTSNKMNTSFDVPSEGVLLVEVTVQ

[7] = target: S1_19B, exo-G4S κ-carrageenan sulfatase from Pseudoalteromonas fuliginea PS47 (Pseudoalteromonas fuliginea PS47); test: crystal structure; hanging drop vapor-diffusion at 18 °C; N-terminal His-Tag cleaved with thrombin before crystallization
[8] = target: S1_19B, exo-G4S κ-carrageenan sulfatase from Pseudoalteromonas fuliginea PS47 (Pseudoalteromonas fuliginea PS47); test: not stated; in solution; method told only in Supplementary Notes (section 3) and Supplementary Fig. 7b-d

Compound: O=S(=O)(O)O[C@@H]1[C@H](O[C@H]2O[C@@H]3CO[C@@H]([C@H]3O)[C@H]2OS(=O)(=O)O)[C@@H](O)[C@H](O[C@@H]2[C@@H]3OC[C@H]2O[C@H](O[C@H]2[C@@H](OS(=O)(=O)O)[C@@H](CO)OC(O)[C@@H]2O)[C@@H]3OS(=O)(=O)O)O[C@@H]1CO (some centres unmarked) [ι-NC4, ι-neocarratetraose]
product analysis, details in supplement [1]: can remove the 4-sulfate from the G4S residue that is adjacent to the non-reducing end | crystal structure of the complex [2]: the structure of this enzyme in complex with ι-NC4 revealed the ability of the enzyme to bind | crystal structure of the complex [3]: structural analysis of the S1_NC C84S mutant in complex with ι-NC4

stoichiometry N [4]: 2
Compound: DauA, 3,6-anhydro-D-galactose dehydrogenase from Pseudoalteromonas fuliginea PS47 (enzyme)

Compound: O=S(=O)(O)O[C@@H]1[C@H](O[C@H]2O[C@@H]3CO[C@H]([C@H]2O)[C@H]3O[C@@H]2O[C@H](CO)[C@H](O)[C@H](O[C@H]3O[C@@H]4CO[C@@H]([C@H]4O)[C@H]3O)[C@H]2O)[C@@H](O)C(O)O[C@@H]1CO (stereo partly drawn) [β/κ-NC4, β/κ-neocarratetraose]
thin layer chromatography of products [5]: has the same enzymatic activity as GH167 (Fig. 5a) | thin layer chromatography of products [6]: Using TLC we found activity on hybrid β/κ-neocarratetraose (β/κ-NC4)

stoichiometry N [7]: 2 | stoichiometry N [8]: 2
Compound: S1_19B, exo-G4S κ-carrageenan sulfatase from Pseudoalteromonas fuliginea PS47 (enzyme)
